# Reference: patent publication US11851419B2, “GLP-1R modulating compounds” (Gilead Sciences, Inc., priority 2020, dated 2023)
# Legend:
# GLP-1R [1] = biological target: T1, GLP-1R (Homo sapiens, UniProt P43220); experiment: GLP-1R Activation - cAMP Assay 1 (cAMP increase in CHO cells stably expressing GLP-1R); assay type: cell-based; settings: 10 point dose response, 30 minutes incubation at 37° C., cAMP Gs Dynamic Kit
# Protocol: GLP-1R Activation—cAMP Assay 1
# GLP-1R activation by a compound of the present disclosure was quantified by measuring cAMP increase in CHO cells stably expressing GLP-1R (MultiSpan product #C1267-1a). The cells were harvested and plated in growth medium (DMEM/F-12 (Corning product #10-090-CV) supplemented with 10% FBS (HyClone product #SH30071-03), penicillin/streptomycin (Corning product #30-002CI) and 10 µg/ml puromycin (Gibco product #A11138-03)) at 1,000 cells/well in a 384-well plate (Greiner product #781080). The cells were then incubated overnight at 37° C., 5% CO2. The next day, the medium was removed and the cells were washed with DPBS (Corning product #21-031-CM) before adding the assay medium (HBSS, Corning product #21-023-CV) with 20 mM Hepes (Gibco product #15630-080) and 0. 1% BSA (Rockland Immunochemicals product #BSA-1000)). Following the medium change, the cells were incubated for 1 hour at 37° C., 5% CO2. The tested GLP-1 compound was added to the cells in a 10 point dose response followed by a 30 minutes incubation at 37° C., 5% CO2. cAMP concentration increase was then detected using Cisbio's cAMP Gs Dynamic Kit (product #62AM4PEC) according to the manufacturer's protocol. The response was plotted against the log of the agonist concentration and fitted to a sigmoidal equation to determine the EC50.
# GLP-1R [2] = biological target: T1, GLP-1R; experiment: GLP-1R Activation - cAMP Assay 2 (cAMP increase in CHO cells stably expressing GLP-1R, pre-spotted agonists); assay type: cell-based; settings: assay buffer or 100% Human Plasma (not given), 30 minutes at 37° C.
# Protocol: GLP-1R Activation—cAMP Assay 2
# GLP-1R activation by small molecule agonists is quantified by measuring cAMP increase in CHO cells stably expressing GLP-1R (MultiSpan product #C1267-1a). 50 nL of agonists are pre-spotted in a 10 point dose response onto 384-well plate (Corning product #CL3826) using the Labcyte Echo System. The cells are harvested and plated in assay buffer (HBSS (Corning product #21-023-CV) with 20 mM Hepes (Gibco product #15630-080) and 0.1% BSA (Rockland Immunochemicals product #BSA-1000)) or 100% Human Plasma (Innovative Research product #50-643-396) at 1,000 cells/well, 10 µL/well, onto the pre-spotted plates. The cells are then incubated for 30 minutes at 37° C., 5% CO2. cAMP concentration increase is then detected using Cisbio's cAMP Gs Dynamic Kit (product #62AM4PEC) according to the manufacturer's protocol. The response is plotted against the log of the agonist concentration and fitted to a sigmoidal equation to determine the EC50.
# T1 sequence (P43220 24-463): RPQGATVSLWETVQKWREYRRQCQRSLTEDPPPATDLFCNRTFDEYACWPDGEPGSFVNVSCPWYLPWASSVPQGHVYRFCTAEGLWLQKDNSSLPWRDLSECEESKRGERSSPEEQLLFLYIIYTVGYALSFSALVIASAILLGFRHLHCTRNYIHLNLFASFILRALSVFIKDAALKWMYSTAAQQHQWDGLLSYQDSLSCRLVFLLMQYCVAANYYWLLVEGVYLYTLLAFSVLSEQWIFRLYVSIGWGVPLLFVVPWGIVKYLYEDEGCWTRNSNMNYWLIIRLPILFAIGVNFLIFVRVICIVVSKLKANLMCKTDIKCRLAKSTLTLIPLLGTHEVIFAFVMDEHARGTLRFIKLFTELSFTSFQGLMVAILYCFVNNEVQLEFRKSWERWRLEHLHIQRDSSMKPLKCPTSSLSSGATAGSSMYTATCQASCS
SMILES,EC50 (GLP-1R [1]) [nM],EC50 (GLP-1R [2]) [nM]
"COCCn1c(C2CC23CCN(c2cccc(OCc4ccc(C#N)cc4F)n2)CC3)nc2c(F)cc(C(=O)O)cc21 (stereo not drawn) [Example 7, 2-[6-[6-[(4-cyano-2-fluoro-phenyl)methoxy]-2-pyridyl]-6-azaspiro[2.5]octan-2-yl]-7-fluoro-3-(2-methoxyethyl)benzimidazole-5-carboxylic Acid]",3.8,10.3
"COCCn1c(CN2CCC(c3cccc(OCc4ccc(C#N)cc4F)n3)CC2)nc2c(F)c(F)c(C(=O)O)cc21 [Example 10, 2-((4-(6-((4-cyano-2-fluorobenzyl)oxy)pyridin-2-yl)piperidin-1-yl)methyl)-4,5-difluoro-1-(2-methoxyethyl)-1H-benzo[d]imidazole-6-carboxylic Acid]",18.2,11.3
"COCCn1c(CN2CCC(c3cccc(OCc4ccc(C#N)cc4F)n3)CC2)nc2c(C3CC3)cc(C(=O)O)cc21 [Example 26, 2-((4-(6-((4-cyano-2-fluorobenzyl)oxy)pyridin-2-yl)piperidin-1-yl)methyl)-4-cyclopropyl-1-(2-methoxyethyl)-1H-benzo[d]imidazole-6-carboxylic Acid]",53.9,47.8
"COCCn1c(CN2CCC(c3cccc(OCc4ccc(C#N)cc4F)n3)CC2)nc2c(-c3cnn(C)c3)cc(C(=O)O)cc21 [Example 29, 2-((4-(6-((4-cyano-2-fluorobenzyl)oxy)pyridin-2-yl)piperidin-1-yl)methyl)-1-(2-methoxyethyl)-4-(1-methyl-1H-pyrazol-4-yl)-1H-benzo[d]imidazole-6-carboxylic Acid]",104,–

# Second part, the molecule after the results:
EC50 (GLP-1R [1]) [nM],EC50 (GLP-1R [2]) [nM],SMILES
5.3,13.2,COCCn1c(CC2CCN(c3cccc(OCc4ccc(C#N)cc4F)n3)CC2)nc2c(F)cc(C(=O)O)cc21 [Example 8]
6.6,2.6,COCCn1c(CN2CCC(c3cccc(OCc4ccc(C#N)cc4F)n3)CC2)nc2c(Cl)cc(C(=O)O)cc21 [Example 9]
3.5,7.1,"COCCn1c(CN2CCC(c3cccc(OCc4ccc(C#N)cc4F)n3)CC2)nc2c(C#N)cc(C(=O)O)cc21 [Example 25, 4-cyano-2-((4-(6-((4-cyano-2-fluorobenzyl)oxy)pyridin-2-yl)piperidin-1-yl)methyl)-1-(2-methoxyethyl)-1H-benzo[d]imidazole-6-carboxylic Acid]"
14.6,–,"COCCn1c(CN2CCC(c3cccc(OCc4ccc(C#N)cc4F)n3)CC2)nc2c(COC)cc(C(=O)O)cc21 [Example 27, 2-((4-(6-((4-cyano-2-fluorobenzyl)oxy)pyridin-2-yl)piperidin-1-yl)methyl)-1-(2-methoxyethyl)-4-(methoxymethyl)-1H-benzo[d]imidazole-6-carboxylic Acid]"
21,–,"COCCn1c(CN2CCC(c3cccc(OCc4ccc(C#N)cc4F)n3)CC2)nc2c(C)cc(C(=O)O)cc21 [Example 28, 2-((4-(6-((4-cyano-2-fluorobenzyl)oxy)pyridin-2-yl)piperidin-1-yl)methyl)-1-(2-methoxyethyl)-4-methyl-1H-benzo[d]imidazole-6-carboxylic Acid]"
